Measurements published in BindingDB's records for doi:10.1021/jm058208o (Universidad Central De Venezuela, 2005).

These molecules were tested against Falcipain-2 (Plasmodium falciparum, UniProt Q9NAW2) (assay: Falcipain Enzyme Inhibition Assay). Details: pH 5.5; 22 °C.
Procedure: The substrate peptide terminating in AMC is processed by falcipain-2 with or without inhibitors, and the accumulation of AMC was monitored in a Labsystems Fluoroskan Ascent spectrofluorometer. IC50 values were determined from plots of percent activity over concentration using GraphPad Prism software.

Chain of Falcipain-2 (Q9NAW2 whole entry): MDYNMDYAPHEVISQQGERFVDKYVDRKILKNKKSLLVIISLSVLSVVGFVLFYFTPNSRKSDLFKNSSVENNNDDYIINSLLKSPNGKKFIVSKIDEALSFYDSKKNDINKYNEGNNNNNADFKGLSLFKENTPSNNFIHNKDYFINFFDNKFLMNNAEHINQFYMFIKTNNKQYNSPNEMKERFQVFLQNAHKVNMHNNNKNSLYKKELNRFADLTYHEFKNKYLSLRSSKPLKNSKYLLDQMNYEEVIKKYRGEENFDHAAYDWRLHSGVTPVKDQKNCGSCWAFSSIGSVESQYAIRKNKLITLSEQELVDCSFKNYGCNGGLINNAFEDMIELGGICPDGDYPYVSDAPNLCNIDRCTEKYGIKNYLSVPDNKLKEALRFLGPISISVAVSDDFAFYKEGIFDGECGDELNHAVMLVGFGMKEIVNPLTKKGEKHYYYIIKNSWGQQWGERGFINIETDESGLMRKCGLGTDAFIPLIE

IC50	SMILES
3.4 µM	O=C(Nc1ccc(Cl)cc1)Nc1ccc(C(=O)/C=C/c2cccnc2)cc1 [3-(4-chlorophenyl)-1-{4-[(2E)-3-(pyridin-3-yl)prop-2-enoyl]phenyl}urea]
0.058 µM	CC(C)C[C@H](NC(=O)[C@@H]1O[C@H]1C(=O)O)C(=O)NCCCCN=C(N)N [L-trans-3-Carboxyoxiran-2-carbonyl-L-leucylagmatine]
12.5 µM	COc1ccc(NC(=O)Nc2ccc(C(=O)/C=C/c3cccnc3)cc2)cc1 [3-(4-methoxyphenyl)-1-{4-[(2E)-3-(pyridin-3-yl)prop-2-enoyl]phenyl}urea]
